Reference: US9216973B2, “Insecticidal compounds” (Syngenta Participations AG, priority 2008, dated 2015)

How the values were obtained:
Type in all cases: in vivo
[1] = test system: Thrips tabaci (Onion thrips); assay: Thrips tabaci sunflower leaf disc spray test; details: for pest or weed control at 200 ppm: foliar, 168 h, 200 ppm spray on sunflower leaf discs, population of mixed ages, mortality after 7 days; for effect on mortality, feeding behavior, or growth regulation: same protocol, 200 ppm
Description: (§1) This Example illustrates the insecticidal and acaricidal properties of compounds of formula (I). The tests were performed as follows:
(§2) Cotton leaf discs were placed on agar in a 24-well microtiter plate and sprayed with test solutions at an application rate of 200 ppm. After drying, the leaf discs were infested with 5 L1 larvae. The samples were checked for mortality, feeding behavior, and growth regulation 3 days after treatment (DAT). The following compound gave at least 80% control of Spodoptera littoralis: A1, A2, A5, A6, A7, A8, A10, A11, A12, A13, A14, A15, A16, A17, A18, A19, A21, A22, A23, A24, A25, A30, A31, A32, A33, A34, A35, A39, A40, A41 A42, A43, A44, A45, A46, A47, A48, A49, A50, A51, A53, A54, A55, A59, A60, A61, A62. Heliothis virescens (Tobacco budworm): Eggs (0-24 h old) were placed in 24-well microtiter plate on artificial diet and treated with test solutions at an application rate of 200 ppm (concentration in well 18 ppm) by pipetting. After an incubation period of 4 days, samples were checked for egg mortality, larval mortality, and growth regulation. The following compound gave at least 80% control of Heliothis virescens: A1, A2, A3, A4, A5, A6, A7, A8, A10, A11, A12, A13, A14, A15, A16, A18, A19, A21, A22, A24, A25, A30, A31, A32, A33, A34, A35, A37, A38, A39, A40, A42, A43, A44, A45, A46, A47, A48, A49, A50, A51, A55, AA57, A58, A59, A60, A61, A62. Plutella xylostella (Diamond back moth): 24-well microtiter plate (MTP) with artificial diet was treated with test solutions at an application rate of 200 ppm (concentration in well 18 ppm) by pipetting. After drying, the MTP's were infested with L2 larvae (7-12 per well). After an incubation period of 6 days, samples were checked for larval mortality and growth regulation. The following compound gave at least 80% control of Plutella xylostella: A1, A2, A5, A6, A7, A8, A9, A10, A11, A12, A13, A14, A15, A16, A17, A18, A19, A20, A21, A22, A24, A25, A30, A31, A32, A33, A34, A35, A37, A38, A39, A40, A42, A43, A44, A45, A46, A47, A48, A49, A50, A51, A52, A53, A54, A55, A57, A58, A59, A60, A61, A62, B3. Diabrotica balteata (Corn root worm): A 24-well microtiter plate (MTP) with artificial diet was treated with test solutions at an application rate of 200 ppm (concentration in well 18 ppm) by pipetting. After drying, the MTP's were infested with L2 larvae (6-10 per well). After an incubation period of 5 days, samples were checked for larval mortality and growth regulation. The following compound gave at least 80% control of Diabrotica balteata: A1, A2, A5, A6, A7, A10, A11, A12, A13, A14, A15, A16, A17, A18, A19, A21, A22, A24, A25, A30, A31, A32, A33, A34, A35, A38, A39, A40, A42, A43, A44, A45, A46, A47, A48, A49, A50, A59, A60, A61, A62. Thrips tabaci (Onion thrips): Sunflower leaf discs were placed on agar in a 24-well microtiter plate and sprayed with test solutions at an application rate of 200 ppm. After drying, the leaf discs were infested with an […] population of mixed ages. After an incubation period of 7 days, samples were checked for mortality. The following compounds gave at least 80% control of Thrips tabaci: A1, A2, A5, A6, A7, A8, A10, A12, A13, A14, A15, A16, A17, A18, A19, A21, A24, A25, A30, A31, A32, A33, A34, A35, A39, A42, A43, A44, A45, A46, A47, A48, A49, A50, A51, A53, A54, A57, A58, A59, A60, A61, A62. Tetranychus urticae (Two-spotted spider mite): Bean leaf discs on agar in 24-well microtiter plates were sprayed with test solutions at an application rate of 200 ppm. After drying, the leaf discs are infested with mite populations of mixed ages. 8 days later, discs are checked for egg mortality, larval mortality, and adult mortality. The following compound gave at least 80% control of Tetranychus urticae: A1, A2, A4, A5, A6, A7, A8, A10, A11, A12, A13, A14, A15, A16, A17, A18, A19, A20, A21, A22, A30, A31, A32, A33, A34, A35, A39, A40, A41, A42, A43, A44, A45, A46, A47, A48, A49, A50, A51, A53, A54, A55, A57, A59, A60, A61, A62.

[2] = test system: Diabrotica balteata (Corn root worm); assay: Diabrotica balteata larvae test on artificial diet; details: for pest or weed control at 200 ppm: 120 h, 200 ppm (concentration in well 18 ppm), artificial diet, L2 larvae, larval mortality and growth regulation after 5 days; for effect on mortality, feeding behavior, or growth regulation: same protocol, 200 ppm
Description: as §1, §2

[3] = test system: Plutella xylostella (Diamond back moth); assay: Plutella xylostella larvae test on artificial diet; details: for pest or weed control at 200 ppm: 144 h, 200 ppm (concentration in well 18 ppm), artificial diet, L2 larvae, larval mortality and growth regulation after 6 days; for effect on mortality, feeding behavior, or growth regulation: same protocol, 200 ppm
Description: as §1, §2

SMILES	pest or weed control at 200 ppm [1] [%]	pest or weed control at 200 ppm [2] [%]	pest or weed control at 200 ppm [3] [%]	effect on mortality, feeding behavior, or growth regulation [1]	effect on mortality, feeding behavior, or growth regulation [2]	effect on mortality, feeding behavior, or growth regulation [3]
CC1(NC(=O)c2ccc(C3=NOC(c4cc(Cl)cc(Cl)c4)(C(F)(F)F)C3Br)c3ccccc23)CSC1 (stereo not drawn) [A43]	≥ 80	≥ 80	≥ 80	–	–	–
Cc1cc(C2=NN(C)C(c3cc(Cl)cc(Cl)c3)(C(F)(F)F)C2)ccc1C(=O)NC1(C)CSC1 (stereo not drawn) [A12]	≥ 80	≥ 80	≥ 80	–	–	–
Cc1cc(C2=NOC(c3cc(Cl)cc(Cl)c3)(C(F)(F)F)C2Br)ccc1C(=O)NC1(C)CSC1 (stereo not drawn) [A5]	≥ 80	≥ 80	≥ 80	–	–	–
Cc1nc2c(C3=NOC(c4cc(Cl)cc(Cl)c4)(C(F)(F)F)C3)ccc(C(=O)NC3(C)CSC3)c2o1 (stereo not drawn) [A27]	–	–	–	little or no effect	little or no effect	little or no effect
Cc1cc(C2=NOC(c3cc(Cl)cc(Cl)c3)(C(F)(F)F)C2Br)ccc1C(=O)NC1CSC1 (stereo not drawn) [A6]	≥ 80	≥ 80	≥ 80	–	–	–
CC1(NC(=O)c2ccc(C3=NOC(c4cc(Cl)cc(Cl)c4)(C(F)(F)F)C3)c3ccccc23)CSC1 (stereo not drawn) [A1]	≥ 80	≥ 80	≥ 80	–	–	–
Cc1nc2c(C3=NOC(c4cc(Cl)cc(Cl)c4)(C(F)(F)F)C3)ccc(C(=O)NC3CS(=O)(=O)C3)c2o1 (stereo not drawn) [A26]	–	–	–	little or no effect	little or no effect	little or no effect
Cc1nc2c(C3=NOC(c4cc(Cl)cc(Cl)c4)(C(F)(F)F)C3)ccc(C(=O)NC3C[S+]([O-])C3)c2o1 (stereo not drawn) [A28]	–	–	–	little or no effect	little or no effect	little or no effect
O=C(NC1CSC1)c1ccc(C2=NOC(c3cc(Cl)cc(Cl)c3)(C(F)(F)F)C2)c2ccccc12 (stereo not drawn) [A2]	≥ 80	≥ 80	≥ 80	–	–	–
Cc1cc(C2=NOC(c3cc(Cl)cc(Cl)c3)(C(F)(F)F)C2Cl)ccc1C(=O)NC1C[S+]([O-])C1 (stereo not drawn) [A34]	≥ 80	≥ 80	≥ 80	–	–	–
O=C(NC1C[S+]([O-])C1)c1ccc(C2=NOC(c3cc(Cl)cc(Cl)c3)(C(F)(F)F)C2Br)c2ccccc12 (stereo not drawn) [A44]	≥ 80	≥ 80	≥ 80	–	–	–
Cc1cc(C2=NCC(c3cc(Cl)cc(Cl)c3)(C(F)(F)F)C2)ccc1C(=O)NC1CSC1 (stereo not drawn) [A49]	≥ 80	≥ 80	≥ 80	–	–	–
